Experimental data: patent US11952610B2, “Digital microbiology” (priority 2016, dated 2024)
In brackets after ≈: the same amount, converted by molar mass. Entries after “also recorded” stand apart in the source; their conditions may differ. Where two headings read alike, the source gives them in different places. Blank lines part the entries; values can stand above or below the molecule they belong to.

What was measured:
[1] = system: Penicillium hirsutum ATCC 16025; test: Inhibition of mold growth outside the droplet aqueous phase, antifungal in oil phase; format: cell-based; conditions: 0.5 mg/L in the oil phase, 48 hours
C. albicans ATCC®24433™ [2] = test: Antifungal susceptibility testing in water-in-oil droplets, microscope reading; format: cell-based, Candida albicans
Protocol: (§1) (at 30° C. for the C. albicans).

C. albicans ATCC®24433™ [3] = conditions: cited from earlier work
[4] = system: Escherichia coli (ATCC®25922™); test: Antimicrobial susceptibility testing in water-in-oil droplets, microscope reading; format: cell-based; conditions: for MIC: Escherichia coli, read-out: Observed MIC
Protocol: as §1

E. coli ATCC®25922 = conditions: cited from earlier work
[5] = ATCC25922, droplets at 37° C., read after 4 and/or 6 h

SMILES: C=CCOC(Cn1ccnc1)c1ccc(Cl)cc1Cl (racemic) [Imazalil, (RS)-1-[2-(allyloxy)-2-(2,4-dichlorophenyl)ethyl]-1H-imidazole]
Mold growth outside the aqueous phase [1]: the hyphae spreading was inhibited and mold growth was confined within the droplet; also recorded: inhibition of mold growth outside the aqueous phase

Observed MIC (C. albicans ATCC®24433™ [2]; droplets at 30° C., read after 4, 6 (24) h): 2 to 4 µg/mL
SMILES: C[C@@H]1[C@H](O)[C@@H](C)/C=C/C=C/C=C/C=C/C=C/C=C/C=C/[C@H](O[C@@H]2O[C@H](C)[C@@H](O)[C@H](N)[C@@H]2O)C[C@@H]2O[C@](O)(C[C@@H](O)C[C@@H](O)[C@H](O)CC[C@@H](O)C[C@@H](O)CC(=O)O[C@H]1C)C[C@H](O)[C@H]2C(=O)O [Amphotericin B]
Growth in % of droplets (C. albicans ATCC®24433™ [2]; 0.125 mg/L, reading time 4 h): 15-20% of | Growth in % of droplets (C. albicans ATCC®24433™ [2]; 0.25 mg/L, reading time 4 h): 15-20% of | Growth in % of droplets (C. albicans ATCC®24433™ [2]; 0.25 mg/L, reading time 6 h): 30-40% of the | Growth in droplets (observation in words) (C. albicans ATCC®24433™ [2]; 0.25 mg/L, reading time 24 h): Full growth | Growth in % of droplets (C. albicans ATCC®24433™ [2]; 0.5 mg/L, reading time 4 h): 15-20% of | Growth in % of droplets (C. albicans ATCC®24433™ [2]; 0.5 mg/L, reading time 6 h): ~30% of | Growth in % of droplets (C. albicans ATCC®24433™ [2]; 0.5 mg/L, reading time 24 h): ~20% of | Growth in droplets (observation in words) (C. albicans ATCC®24433™ [2]; 1 mg/L, reading time 4 h): Limited | Growth in droplets (observation in words) (C. albicans ATCC®24433™ [2]; 1 mg/L, reading time 6 h): Limited | Growth in droplets (observation in words) (C. albicans ATCC®24433™ [2]; 1 mg/L, reading time 24 h): Limited | Growth in droplets (observation in words) (C. albicans ATCC®24433™ [2]; 2 mg/L, reading time 6 h): Limited | Growth in droplets (observation in words) (C. albicans ATCC®24433™ [2]; 2 mg/L, reading time 24 h): Limited | Growth in droplets (observation in words) (C. albicans ATCC®24433™ [2]; 8 mg/L, reading time 24 h): 1-2 cells | Expected MIC (CLSI) (C. albicans ATCC®24433™ [3]): 0.25 to 1 µg/mL

MIC [4, 5]: 2 to 4 µg/mL (≈ 6.19 to 12.4 µM)
SMILES: O=C(N[C@H](CO)[C@H](O)c1ccc([N+](=O)[O-])cc1)C(Cl)Cl [Chloramphenicol]
Growth in % of droplets ([4]; 0.5 mg/L, reading time 4 h): 30-50% of droplets | Growth in % of droplets ([4]; 1 mg/L, reading time 4 h): 20-30% of droplets | Growth in % of droplets ([4]; 1 mg/L, reading time 6 h): 30-50% of droplets | Growth in droplets (observation in words) ([4]; 2 mg/L, reading time 4 h): No growth | Growth in droplets (observation in words) ([4]; 2 mg/L, reading time 6 h): Limited growth in few | Growth in droplets (observation in words) ([4]; 4 mg/L, reading time 4 h): No growth | Growth in droplets (observation in words) ([4]; 4 mg/L, reading time 6 h): No growth | Growth in droplets (observation in words) ([4]; 8 mg/L, reading time 4 h): No growth | Expected MIC (CLSI) (E. coli ATCC®25922): 2 to 8 µg/mL

SMILES: OC(Cn1cncn1)(Cn1cncn1)c1ccc(F)cc1F [Fluconazole]
Growth in % of droplets (C. albicans ATCC®24433™ [2]; 1 mg/L, reading time 6 h): Growth in 15-20% | Growth in % of droplets (C. albicans ATCC®24433™ [2]; 2 mg/L, reading time 4 h): Growth in 15-20% | Growth in % of droplets (C. albicans ATCC®24433™ [2]; 2 mg/L, reading time 6 h): Growth in 15-20% | Growth in % of droplets (C. albicans ATCC®24433™ [2]; 4 mg/L, reading time 4 h): ~15% of droplets | Growth in % of droplets (C. albicans ATCC®24433™ [2]; 4 mg/L, reading time 6 h): Growth in 15-20% | Growth in droplets (observation in words) (C. albicans ATCC®24433™ [2]; 8 mg/L, reading time 4 h): Limited growth | Growth in droplets (observation in words) (C. albicans ATCC®24433™ [2]; 8 mg/L, reading time 6 h): Limited growth | Growth in droplets (observation in words) (C. albicans ATCC®24433™ [2]; 16 mg/L, reading time 4 h): Limited growth | Growth in droplets (observation in words) (C. albicans ATCC®24433™ [2]; 16 mg/L, reading time 6 h): Limited growth | Growth in droplets (observation in words) (C. albicans ATCC®24433™ [2]; 32 mg/L, reading time 4 h): Limited growth | Growth in droplets (observation in words) (C. albicans ATCC®24433™ [2]; 32 mg/L, reading time 6 h): Limited growth | Growth in droplets (observation in words) (C. albicans ATCC®24433™ [2]; 64 mg/L, reading time 4 h): Limited growth | Growth in droplets (observation in words) (C. albicans ATCC®24433™ [2]; 64 mg/L, reading time 6 h): Limited growth | Expected MIC (CLSI) (C. albicans ATCC®24433™ [3]): 0.25 to 1 µg/mL

SMILES: CCn1cc(C(=O)O)c(=O)c2ccc(C)nc21 [Nalidixic acid]
Growth in % of droplets ([4]; 1 mg/L, reading time 6 h): Growth in about 50% of | Growth in droplets (observation in words) ([4]; 2 mg/L, reading time 6 h): One or few small | Growth in droplets (observation in words) ([4]; 4 mg/L, reading time 4 h): One or few small | Growth in droplets (observation in words) ([4]; 4 mg/L, reading time 6 h): No growth | MIC ([4]; ATCC25922, 6 h): 4 µg/mL (≈ 17.2 µM) | Expected MIC (CLSI) (E. coli ATCC®25922): 1 to 4 µg/mL

MIC [4, 5]: 2 µg/mL (≈ 3.86 µM)
SMILES: CCN1CCN(C(=O)N[C@@H](C(=O)N[C@@H]2C(=O)N3[C@@H]2SC(C)(C)[C@@H]3C(=O)O)c2ccccc2)C(=O)C1=O [Piperacillin]
Growth in droplets (observation in words) ([4]; 1 mg/L, reading time 4 h): Limited growth in droplets with cells forming filaments | Growth in droplets (observation in words) ([4]; 2 mg/L, reading time 4 h): No growth | Expected MIC (CLSI) (E. coli ATCC®25922): 1 to 4 µg/mL
